# Experimental data: PMC4867616, “Imaging of Cerebral Amyloid Angiopathy with Bivalent ^99mTc-Hydroxamamide Complexes” (Scientific Reports, 2016)
# “And” between values parts separate entries of the source, which are not always exact repeats. Equal entries are not always repeated.
# Key:
# Aβ = target: Aβ; set-up: method as in PMID 12801237, PMID 19837759; conditions: order of magnitude only; cited from earlier work
# [1] = Ex vivo biodistribution in normal mice; set-up: species or system ddY mice; conditions: i.v., mean (SD), 5 animals
# Description: To evaluate brain uptake of ^99mTc-Ham complexes, biodistribution experiments of ^99mTc-Ham complexes were performed in normal mice. We selected ^18F-florbetapir as a control and compared the results of ^99mTc-Ham complexes with that of ^18F-florbetapir (Fig. 2). The brain uptake of [^99mTc]SB1A, [^99mTc]SB2A, [^99mTc]BT1B, and [^99mTc]BT2B at 2 min postinjection was 0.37, 0.28, 0.36, and 0.37% injected dose (ID)/g, respectively. The radioactivity in the brains remained low until 60 min postinjection. The results of the biodistribution study are shown in Table S1 in Supplementary information.
# A saline solution (100 μL) of ^99mTc-Ham complexes (20 kBq) containing EtOH (10 μL) was injected directly into the tail vein of ddY mice (male, 5 weeks old). The mice were sacrificed at 2, 10, 30, and 60 min postinjection. The organs of interest were removed and weighed, and radioactivity was measured using a γ counter (PerkinElmer). The %ID/g of samples was calculated by comparing the sample counts with the count of the diluted initial dose.
# *Corresponding author: M. Ono. Address: 46-29 Yoshida Shimoadachi-cho, Sakyo-ku, Kyoto 606-8501, Japan, Phone: +81-75-753-4608, Fax: +81-75-753-4568, E-mail: ono@pharm.kyoto-u.ac.jp. Ex vivo biodistribution in normal mice. A saline solution (100 μL) of ^99mTc-Ham complexes (20 kBq) containing EtOH (10 μL) was injected directly into the tail vein of ddY mice (male, 5 weeks old). The mice were sacrificed at 2, 10, 30, and 60 min postinjection. The organs of interest were removed and weighed, and radioactivity was measured using a γ counter (Wallac 1470 Wizard; PerkinElmer, Massachusetts, USA). Percentage dose per organ was calculated by comparing the tissue counts to suitably diluted aliquots of the injected material. The %dose/g of samples was calculated by comparing the sample counts with the count of the diluted initial dose.
# [2] = normal mice, 2 min postinjection, similar experimental conditions; cited from earlier work
compound,measurement,setting,value
Thioflavin-S,Kd,Aβ,μM order
"CN(C)c1ccc(/C=C/c2ccc(C3=N[O][99Tc-]4(=[O])([NH]C(c5ccc(N(C)C)cc5)=N[O]4)[NH2+]3)cc2)cc1 (single isomer, unassigned) [[^99mTc]SB1A]","Biodistribution of radioactivity, Blood",[1]; 2 min after injection,18.89 (4.57) % injected dose per gram
same,"Biodistribution of radioactivity, Brain",[1]; 2 min after injection,0.37 % injected dose per gram and 0.37 (0.05) % injected dose per gram
same,"Biodistribution of radioactivity, Heart",[1]; 2 min after injection,9.48 (2.01) % injected dose per gram
same,"Biodistribution of radioactivity, Intestine",[1]; 2 min after injection,1.94 (0.25) % injected dose per gram
same,"Biodistribution of radioactivity, Kidney",[1]; 2 min after injection,10.74 (2.03) % injected dose per gram
same,"Biodistribution of radioactivity, Liver",[1]; 2 min after injection,28.55 (4.86) % injected dose per gram
same,"Biodistribution of radioactivity, Lung",[1]; 2 min after injection,15.47 (4.14) % injected dose per gram
same,"Biodistribution of radioactivity, Pancreas",[1]; 2 min after injection,4.12 (0.62) % injected dose per gram
same,"Biodistribution of radioactivity, Spleen",[1]; 2 min after injection,9.73 (3.34) % injected dose per gram
same,"Biodistribution of radioactivity, Stomach",[1]; 2 min after injection,1.64 (0.41) % injected dose per organ
same,"Biodistribution of radioactivity, Blood",[1]; 10 min after injection,9.30 (1.96) % injected dose per gram
same,"Biodistribution of radioactivity, Brain",[1]; 10 min after injection,0.19 (0.02) % injected dose per gram
same,"Biodistribution of radioactivity, Heart",[1]; 10 min after injection,6.51 (0.77) % injected dose per gram
same,"Biodistribution of radioactivity, Intestine",[1]; 10 min after injection,4.27 (0.88) % injected dose per gram
same,"Biodistribution of radioactivity, Kidney",[1]; 10 min after injection,9.48 (1.28) % injected dose per gram
same,"Biodistribution of radioactivity, Liver",[1]; 10 min after injection,31.03 (2.29) % injected dose per gram
same,"Biodistribution of radioactivity, Lung",[1]; 10 min after injection,9.67 (0.88) % injected dose per gram
same,"Biodistribution of radioactivity, Pancreas",[1]; 10 min after injection,3.09 (0.38) % injected dose per gram
same,"Biodistribution of radioactivity, Spleen",[1]; 10 min after injection,9.70 (3.03) % injected dose per gram
same,"Biodistribution of radioactivity, Stomach",[1]; 10 min after injection,4.54 (0.97) % injected dose per organ
same,"Biodistribution of radioactivity, Blood",[1]; 30 min after injection,6.06 (0.29) % injected dose per gram
same,"Biodistribution of radioactivity, Brain",[1]; 30 min after injection,0.16 (0.03) % injected dose per gram
same,"Biodistribution of radioactivity, Heart",[1]; 30 min after injection,2.98 (0.63) % injected dose per gram
same,"Biodistribution of radioactivity, Intestine",[1]; 30 min after injection,7.06 (1.67) % injected dose per gram
same,"Biodistribution of radioactivity, Kidney",[1]; 30 min after injection,6.18 (0.84) % injected dose per gram
same,"Biodistribution of radioactivity, Liver",[1]; 30 min after injection,20.17 (3.18) % injected dose per gram
same,"Biodistribution of radioactivity, Lung",[1]; 30 min after injection,5.31 (0.67) % injected dose per gram
same,"Biodistribution of radioactivity, Pancreas",[1]; 30 min after injection,1.74 (0.33) % injected dose per gram
same,"Biodistribution of radioactivity, Spleen",[1]; 30 min after injection,7.86 (1.11) % injected dose per gram
same,"Biodistribution of radioactivity, Stomach",[1]; 30 min after injection,10.28 (2.03) % injected dose per organ
same,"Biodistribution of radioactivity, Blood",[1]; 60 min after injection,2.71 (0.14) % injected dose per gram
same,"Biodistribution of radioactivity, Brain",[1]; 60 min after injection,0.08 (0.00) % injected dose per gram
same,"Biodistribution of radioactivity, Heart",[1]; 60 min after injection,4.30 (0.14) % injected dose per gram
same,"Biodistribution of radioactivity, Intestine",[1]; 60 min after injection,14.34 (2.35) % injected dose per gram
same,"Biodistribution of radioactivity, Kidney",[1]; 60 min after injection,9.66 (0.18) % injected dose per gram
same,"Biodistribution of radioactivity, Liver",[1]; 60 min after injection,22.16 (2.20) % injected dose per gram
same,"Biodistribution of radioactivity, Lung",[1]; 60 min after injection,5.14 (0.29) % injected dose per gram
same,"Biodistribution of radioactivity, Pancreas",[1]; 60 min after injection,2.67 (0.07) % injected dose per gram
same,"Biodistribution of radioactivity, Spleen",[1]; 60 min after injection,5.44 (0.49) % injected dose per gram
same,"Biodistribution of radioactivity, Stomach",[1]; 60 min after injection,6.63 (1.12) % injected dose per organ
"CNc1ccc(/C=C/c2ccc(OCCOCCOCCF)nc2)cc1 [[^18F]florbetapir, reference compound]",Kd,Aβ,nM order
same,Initial brain uptake,[2],4.90 %ID/g
CN(C)c1ccc(C2=N[O][99Tc-]3(=[O])([NH]2)[NH2+]C(c2ccc4nc(-c5ccc(N(C)C)cc5)sc4c2)=N[O]3)cc1 [[^99mTc]BT1B],"Biodistribution of radioactivity, Blood",[1]; 2 min after injection,18.61 (2.47) % injected dose per gram
same,"Biodistribution of radioactivity, Brain",[1]; 2 min after injection,0.36 % injected dose per gram and 0.36 (0.03) % injected dose per gram
same,"Biodistribution of radioactivity, Heart",[1]; 2 min after injection,5.25 (0.22) % injected dose per gram
same,"Biodistribution of radioactivity, Intestine",[1]; 2 min after injection,0.90 (0.25) % injected dose per gram
same,"Biodistribution of radioactivity, Kidney",[1]; 2 min after injection,5.94 (0.73) % injected dose per gram
same,"Biodistribution of radioactivity, Liver",[1]; 2 min after injection,19.90 (4.06) % injected dose per gram
same,"Biodistribution of radioactivity, Lung",[1]; 2 min after injection,10.87 (2.06) % injected dose per gram
same,"Biodistribution of radioactivity, Pancreas",[1]; 2 min after injection,1.80 (0.28) % injected dose per gram
same,"Biodistribution of radioactivity, Spleen",[1]; 2 min after injection,3.83 (0.84) % injected dose per gram
same,"Biodistribution of radioactivity, Stomach",[1]; 2 min after injection,1.39 (0.21) % injected dose per organ
same,"Biodistribution of radioactivity, Blood",[1]; 10 min after injection,9.34 (2.62) % injected dose per gram
same,"Biodistribution of radioactivity, Brain",[1]; 10 min after injection,0.17 (0.04) % injected dose per gram
same,"Biodistribution of radioactivity, Heart",[1]; 10 min after injection,3.30 (1.02) % injected dose per gram
same,"Biodistribution of radioactivity, Intestine",[1]; 10 min after injection,2.00 (0.86) % injected dose per gram
same,"Biodistribution of radioactivity, Kidney",[1]; 10 min after injection,4.29 (1.25) % injected dose per gram
same,"Biodistribution of radioactivity, Liver",[1]; 10 min after injection,25.64 (6.77) % injected dose per gram
same,"Biodistribution of radioactivity, Lung",[1]; 10 min after injection,6.50 (1.41) % injected dose per gram
same,"Biodistribution of radioactivity, Pancreas",[1]; 10 min after injection,1.58 (0.55) % injected dose per gram
same,"Biodistribution of radioactivity, Spleen",[1]; 10 min after injection,3.00 (0.82) % injected dose per gram
same,"Biodistribution of radioactivity, Stomach",[1]; 10 min after injection,3.76 (0.82) % injected dose per organ
same,"Biodistribution of radioactivity, Blood",[1]; 30 min after injection,5.84 (0.65) % injected dose per gram
same,"Biodistribution of radioactivity, Brain",[1]; 30 min after injection,0.11 (0.02) % injected dose per gram
same,"Biodistribution of radioactivity, Heart",[1]; 30 min after injection,2.72 (0.28) % injected dose per gram
same,"Biodistribution of radioactivity, Intestine",[1]; 30 min after injection,6.81 (2.03) % injected dose per gram
same,"Biodistribution of radioactivity, Kidney",[1]; 30 min after injection,5.24 (0.59) % injected dose per gram
same,"Biodistribution of radioactivity, Liver",[1]; 30 min after injection,27.06 (2.49) % injected dose per gram
same,"Biodistribution of radioactivity, Lung",[1]; 30 min after injection,5.00 (0.34) % injected dose per gram
same,"Biodistribution of radioactivity, Pancreas",[1]; 30 min after injection,1.72 (0.11) % injected dose per gram
same,"Biodistribution of radioactivity, Spleen",[1]; 30 min after injection,3.11 (0.48) % injected dose per gram
same,"Biodistribution of radioactivity, Stomach",[1]; 30 min after injection,8.24 (1.41) % injected dose per organ
same,"Biodistribution of radioactivity, Blood",[1]; 60 min after injection,3.51 (0.34) % injected dose per gram
same,"Biodistribution of radioactivity, Brain",[1]; 60 min after injection,0.08 (0.02) % injected dose per gram
same,"Biodistribution of radioactivity, Heart",[1]; 60 min after injection,1.64 (0.32) % injected dose per gram
same,"Biodistribution of radioactivity, Intestine",[1]; 60 min after injection,9.95 (2.65) % injected dose per gram
same,"Biodistribution of radioactivity, Kidney",[1]; 60 min after injection,3.20 (0.45) % injected dose per gram
same,"Biodistribution of radioactivity, Liver",[1]; 60 min after injection,19.04 (3.61) % injected dose per gram
same,"Biodistribution of radioactivity, Lung",[1]; 60 min after injection,2.78 (0.54) % injected dose per gram
same,"Biodistribution of radioactivity, Pancreas",[1]; 60 min after injection,1.11 (0.18) % injected dose per gram
same,"Biodistribution of radioactivity, Spleen",[1]; 60 min after injection,1.36 (0.54) % injected dose per gram
same,"Biodistribution of radioactivity, Stomach",[1]; 60 min after injection,6.47 (0.85) % injected dose per organ
